Results reported in patent US20240124454A1, “TRICYCLIC COMPOUND AND USE THEREOF” (NANJING ZAIMING PHARMACEUTICAL CO., LTD., priority 2020, published 2024).

Biological target: CYP3A4 (Homo sapiens (Human), UniProt P08684)
Assay: CYP3A4 inhibition in human liver microsomes (midazolam substrate)
Type: in vitro ADME
Details: human liver microsome
Description: Test Example 7. Inhibitory Effect of Compound of the Present Application on Enzymatic Activity of CYP2C9, CYP2D6, and CYP3A4
The inhibition of CYP2C9, CYP2D6, and CYP3A4 activity by the compound of the present application was determined using the following method.
I. Experimental materials and instruments • 1. Human liver microsome (Corning 452117) • 2. NADPH (Solarbio 705Y021) • 3. Positive substrates diclofenac (Sigma SLBV3438), dextromethorphan (TRC 3-EDO-175-1), and midazolam (Cerilliant FE01161704) • 4. Positive inhibitors sulfaphenazole (D. Ehrenstorfer GmbH 109012), quinidine (TCI WEODL-RE), and ketoconazole (Sigma 100M1091V) • 5. AB Sciex Triple Quad 5500 liquid chromatography-mass spectrometry system
1. Preparation of 100 mM phosphate-buffered saline (PBS): 7.098 g Na2HPO4 was weighed. 500 mL pure water was added. The mixture was dissolved by sonication to give solution A. 3.400 g KH2PO4 was weighed. 250 mL pure water was added. The mixture was dissolved by sonication to give solution B. The solution A was placed in a stirrer, and the solution B was slowly added until the pH reached 7.4, so that the 100 mM PBS buffer was prepared.
2. A 10 mM NADPH solution was prepared with a 100 mM PBS buffer. A 10 mM stock solution of the compound of the present application was diluted with DMSO to give a compound working solution at a concentration of 200×(6000, 2000, 600, 200, 60, 20, and 0 μM). The positive inhibitor stock solution was diluted with DMSO to give a positive inhibitor working solution at a concentration of 200×(sulfaphenazole, 1000, 300, 100, 30, 10, 3, and 0 μM; quinidine/ketoconazole, 100, 30, 10, 3, 1, 0.3, and 0 μM). Substrate working solutions (120 μM diclofenac, 400 μM dextromethorphan, and 200 μM midazolam) at a concentration of 200× were prepared with water, acetonitrile, or acetonitrile/methanol.
3. 2 μL of 20 mg/mL liver microsome solution, 1 μL of substrate working solution, 1 μL of compound working solution, and 176 μL of PBS buffer were taken, mixed well, and placed in a 37° C. water bath for pre-incubation for 15 min. 1 μL of sulfaphenazole, quinidine, or ketoconazole working solution was added to the positive control group instead of the compound working solution. At the same time, 10 mM NADPH solution was placed together in the 37° C. water bath for pre-incubation for 15 min. After 15 min, 20 μL of NADPH was added to each well to initiate the reaction. The mixture was incubated at 37° C. for 5 min (CYP2C9), 20 min (CYP2D6), or 5 min (CYP3A4). All incubated samples were in duplicate. After incubation for the corresponding period of time, 400 μL of icy methanol containing internal standard was added to all samples to stop the reaction. The mixture was vortexed, mixed well, and centrifuged for 40 min at 4° C. at 3220 g. 100 μL of the supernatant was transferred to a feeding plate after the centrifugation was completed, and 100 μL ultrapure water was added. The mixture was well mixed for LC-MS/MS analysis.
The reduction of metabolite production in the treatment groups versus the control group was compared by the peak area ratios of the sample to the internal standard, and the IC50 value was calculated using Excel XLfit 5.3.1.3.
Percentages of remaining activity were calculated according to the following formula:
Remaining activity%=peak area ratio of metabolite to internal standardtest sample/peak area ratio of metabolite to internal standardblank solvent×100%.

Sequence of CYP3A4 (P08684 whole entry): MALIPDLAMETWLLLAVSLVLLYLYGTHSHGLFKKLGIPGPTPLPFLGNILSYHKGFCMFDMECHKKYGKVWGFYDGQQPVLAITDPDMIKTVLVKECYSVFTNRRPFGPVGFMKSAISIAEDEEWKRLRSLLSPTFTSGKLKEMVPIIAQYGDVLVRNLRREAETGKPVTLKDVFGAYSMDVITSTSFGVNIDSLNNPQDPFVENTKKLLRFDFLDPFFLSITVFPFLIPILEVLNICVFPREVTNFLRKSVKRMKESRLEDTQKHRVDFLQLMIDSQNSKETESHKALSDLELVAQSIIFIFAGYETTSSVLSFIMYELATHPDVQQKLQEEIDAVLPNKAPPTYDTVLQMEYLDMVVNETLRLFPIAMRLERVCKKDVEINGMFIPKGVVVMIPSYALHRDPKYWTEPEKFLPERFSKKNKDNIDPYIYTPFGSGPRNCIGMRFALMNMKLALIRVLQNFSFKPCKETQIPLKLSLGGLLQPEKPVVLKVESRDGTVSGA

| Structure (SMILES) | IC50 [µM] |
| --- | --- |
| Cc1ncccc1-n1c(=O)c2ncn(C)c2c2ccc(C(F)(F)F)nc21 (atropisomer, axis not shown) [Compound 20, 1-methyl-5-(2-methylpyridin-3-yl)-7-(trifluoromethyl)-1,5-dihydro-4H-imidazo[4,5-c][1,8]naphthyridin-4-one] | > 30 |
| Cn1cnc2c(=O)n(-c3cccnc3C3CC3)c3cc(Cl)ccc3c21 (single isomer, unassigned) [Compound 49-P2, 7-chloro-5-(2-cyclopropylpyridin-3-yl)-1-methyl-1,5-dihydro-4H-imidazo[4,5-c]quinolin-4-one] | > 30 |
| Cc1ncccc1-n1c(=O)c2ncoc2c2ccc(C(F)(F)F)nc21 [Compound 40, 5-(2-methylpyridin-3-yl)-7-(trifluoromethyl)oxazolo[4,5-c][1,8]naphthyridin-4(5H)-one] | > 30 |
| Cn1cnc2c(=O)n(-c3cccnc3C3CC3)c3cc(C(F)(F)F)ccc3c21 (single isomer, unassigned) [Compound 48-P2, 5-(2-cyclopropylpyridin-3-yl)-1-methyl-7-(trifluoromethyl)-1,5-dihydro-4H-imidazo[4,5-c]quinolin-4-one] | > 30 |
| Cn1cnc2c(=O)n(-c3cccc(F)c3Cl)c3cc(Cl)ccc3c21 [Compound 39, 7-chloro-5-(2-chloro-3-fluorophenyl)-1-methyl-1,5-dihydro-4H-imidazo[4,5-c]quinolin-4-one] | > 30 |
| Cn1cnc2c(=O)n(-c3cccc(F)c3Cl)c3nc(C(F)(F)F)ccc3c21 (atropisomer, axis not shown) [Compound 25, 5-(2-chloro-3-fluorophenyl)-1-methyl-7-(trifluoromethyl)-1,5-dihydro-4H-imidazo[4,5-c][1,8]naphthyridin-4-one] | > 30 |
| Cn1cnc2c(=O)n(-c3cccc(F)c3Cl)c3nc(C(F)(F)F)ccc3c21 (single isomer, unassigned) [Compound 25-P2, 5-(2-chloro-3-fluorophenyl)-1-methyl-7-(trifluoromethyl)-1,5-dihydro-4H-imidazo[4,5-c][1,8]naphthyridin-4-one] | > 30 |
| O=c1c2ncoc2c2ccc(C(F)(F)F)nc2n1-c1cccnc1C1CC1 (single isomer, unassigned) [Compound 81-P2, 5-(2-cyclopropylpyridin-3-yl)-7-(trifluoromethyl)oxazolo[4,5-c][1,8]naphthyridin-4(5H)-one] | > 30 |
| Cn1cnc2c(=O)n(-c3cccnc3C3CC3)c3nc(C(F)(F)F)ccc3c21 (single isomer, unassigned) [Compound 42-P2, 5-(2-cyclopropylpyridin-3-yl)-1-methyl-7-(trifluoromethyl)-1,5-dihydro-4H-imidazo[4,5-c][1,8]naphthyridin-4-one] | > 30 |
| Cn1cnc2c(=O)n(-c3cccnc3C(F)(F)F)c3nc(C(F)(F)F)ccc3c21 (single isomer, unassigned) [Compound 41-P2, 1-methyl-7-(trifluoromethyl)-5-(2-(trifluoromethyl)pyridin-3-yl)-1,5-dihydro-4H-imidazo[4,5-c][1,8]naphthyridin-4-one] | > 30 |
| Cc1ncccc1-n1c(=O)c2ncn(C)c2c2ccc(C(F)(F)F)cc21 [Compound 45, 1-methyl-5-(2-methylpyridin-3-yl)-7-(trifluoromethyl)-1,5-dihydro-4H-imidazo[4,5-c]quinolin-4-one] | > 30 |
